Test results published in patent US9469615B2, “Quinoxalines and AZA-quinoxalines as CRTH2 receptor modulators” (Merck Sharp & Dohme Corp., priority 2010, dated 2016).

Molecular target: T1, hCRTH2 (Homo sapiens, UniProt Q9Y5Y4)
T1 construct: expressed in transfected cells; host or cells: HEK (human embryonic kidney) cells expressing hCRTH2; membrane preparation
T1 sequence (Q9Y5Y4 1-395): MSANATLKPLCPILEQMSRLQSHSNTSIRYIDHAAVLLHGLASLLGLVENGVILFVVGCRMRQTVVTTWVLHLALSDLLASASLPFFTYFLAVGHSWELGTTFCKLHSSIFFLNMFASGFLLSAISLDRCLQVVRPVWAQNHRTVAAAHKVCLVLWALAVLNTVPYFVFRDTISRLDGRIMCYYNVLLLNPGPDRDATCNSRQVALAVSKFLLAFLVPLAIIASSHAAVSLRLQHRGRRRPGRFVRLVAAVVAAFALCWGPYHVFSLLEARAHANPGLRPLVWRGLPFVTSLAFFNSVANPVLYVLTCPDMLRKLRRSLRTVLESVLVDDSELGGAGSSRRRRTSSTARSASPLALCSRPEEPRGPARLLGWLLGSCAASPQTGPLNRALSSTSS
Experiment: Radioligand binding assay ([3H]PGD2 competition, HEK-hCRTH2 membranes)
Conditions: [3H]PGD2 competition, Table B
In short: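 Competition against 3.0 nM [3H]PGD2 was run for 60 min at room temperature in pH 7.4 Tris-HCl buffer with EDTA, 2 mM MnCl2 and 1% DMSO, using 8-20 μg HEK-hCRTH2 membrane protein. 10 μM PGD2 set non-specific binding; filter-bound counts were read by scintillation.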

| Ki [nM] | SMILES |
| --- | --- |
| 201 to 700 | O=C(O)CCCCc1nc2cc(C(=O)N3CCN(c4ccncc4)CC3)ccc2nc1-c1ccc(Cl)cc1 [compound 594, 5-(3-(4-chlorophenyl)-7-(4-(pyridin-4-yl)piperazine-l-carbonyl)quinoxalin-2-yl)pentanoic acid] |
| 0.1 to 2 | N#Cc1cccnc1N1CCN(C(=O)c2ccc3nc(-c4ccc(Cl)cc4)c(CCCCC(=O)O)nc3c2)CC1 [compound 595, 5-(3-(4-chlorophenyl)-7-(4-(3-cyanopyridin-2-yl)piperazine-1-carbonyl)quinoxalin-2-yl)pentanoic acid] |
| 0.1 to 2 | O=C(O)CCCCc1nc2cc(C(=O)N3CCN(c4c(Cl)cncc4Cl)CC3)ccc2nc1-c1ccc(Cl)cc1 [compound 596, 5-(3-(4-chlorophenyl)-7-(4-(3,5-dichloropyridin-4-yl)piperazine-1-carbonyl)quinoxalin-2-yl)pentanoic acid] |
| 2.1 to 20 | O=C(O)CCCCc1nc2cc(C(=O)N3CCN(c4cnccn4)CC3)ccc2nc1-c1ccc(Cl)cc1 [compound 597, 5-(3-(4-chlorophenyl)-7-(4-(pyrazin-2-yl)piperazine-1-carbonyl)quinoxalin-2-yl)pentanoic acid] |
| 2.1 to 20 | O=C(O)CCCCc1nc2cc(C(=O)N3CCN4CCCC4C3)ccc2nc1-c1ccc(Cl)cc1 (stereo not shown) [compound 598, 5-(3-(4-chlorophenyl)-7-(octahydropyrrolo[1,2-a]pyrazine-2-carbonyl)quinoxalin-2-yl)pentanoic acid] |
| 0.1 to 2 | O=C(O)CCCCc1nc2cc(C(=O)N3CCN(c4ccc(C(F)(F)F)cn4)CC3)ccc2nc1-c1ccc(Cl)cc1 [compound 599, 5-(3-(4-chlorophenyl)-7-(4-(5-yl)piperazine-1-carbonyl)quinoxalin-2-yl)pentanoic acid] |
| 0.1 to 2 | O=C(O)CCCCc1nc2cc(C(=O)N3CCN(c4ccccc4C(F)(F)F)CC3)ccc2nc1-c1ccc(Cl)cc1 [compound 600, 5-(3-(4-chlorophenyl)-7-(4-(2-(trifluoromethyl)phenyl)piperazine-1-carbonyl)quinoxalin-2-yl)pentanoic acid] |
| 2.1 to 20 | O=C(O)CCCCc1nc2cc(C(=O)N3CCN(c4nccs4)CC3)ccc2nc1-c1ccc(Cl)cc1 [compound 601, 5-(3-(4-chlorophenyl)-7-(4-(thiazol-2-yl)piperazine-1-carbonyl)quinoxalin-2-yl)pentanoic acid] |
| 0.1 to 2 | O=C(O)CCCCc1nc2cc(C(=O)N3CCN(c4nc5ccccc5s4)CC3)ccc2nc1-c1ccc(Cl)cc1 [compound 602, 5-(7-(4-(benzo[d]thiazol-2-yl)piperazine-1-carbonyl)-3-(4-chlorophenyl)quinoxalin-2-yl)pentanoic acid] |
| 2.1 to 20 | O=C(O)CCCCc1nc2cc(C(=O)N3CCc4ccccc4C3)ccc2nc1-c1ccc(Cl)cc1 [compound 603, 5-(3-(4-chlorophenyl)-7-(1,2,3,4-tetrahydroisoquinoline-2-carbonyl)quinoxalin-2-yl)pentanoic acid] |
| 0.1 to 2 | N#CC1(c2ccccc2)CCN(C(=O)c2ccc3nc(-c4ccc(Cl)cc4)c(CCCCC(=O)O)nc3c2)C1 (stereo not shown) [compound 604, 5-(3-(4--chlorophenyl)-7-(3-cyano-3-phenyl-pyrrolidine-1-carbonyl)quinoxalin-2-yl)pentanoic acid] |
| 0.1 to 2 | CS(=O)(=O)N1CCC(NC(=O)c2ccc3nc(-c4ccc(Cl)cc4)c(CCCCC(=O)O)nc3c2)c2ccccc21 (stereo not shown) [compound 605, 5-(3-(4-chlorophenyl)-7-((1-(methylsulfonyl)-1,2,3,4-tetrahydroquinolin-4-yl)carbamoyl)quinoxalin-2-yl)pentanoic acid] |
| 2.1 to 20 | O=C(O)CCCCc1nc2cc(C(=O)N3CC(c4ccc(F)cc4)C3)ccc2nc1-c1ccc(Cl)cc1 [compound 606, 5-(3-(4-chlorophenyl)-7-(3-(4-fluorophenyl)azetidine-1-carbonyl)quinoxalin-2-yl)pentanoic acid] |
| 0.1 to 2 | O=C(O)CCCCc1nc2cc(C(=O)N3Cc4ccccc4C3)ccc2nc1-c1ccc(Cl)cc1 [compound 607, 5-(3-(4-chlorophenyl)-7-(isoindoline-2-carbonyl)quinoxalin-2-yl)pentanoic acid] |
| 2.1 to 20 | O=C(O)CCCCc1nc2cc(C(=O)N3CCc4c([nH]c5ccccc45)C3)ccc2nc1-c1ccc(Cl)cc1 [compound 608, 5-(3-(4-chlorophenyl)-7-(2,3,4,9-tetrahydro-1H-pyrido[3,4-b]indole-2-carbonyl)quinoxalin-2-yl)pentanoic acid] |
| 0.1 to 2 | O=C(O)CCCCc1nc2cc(C(=O)N3CCN(c4ccccc4Cl)CC3)ccc2nc1-c1ccc(Cl)cc1 [compound 609, 5-(3-(4-chlorophenyl)-7-(4-(2-chlorophenyl)piperazine-1-carbonyl)quinoxalin-2-yl)pentanoic acid] |
| 0.1 to 2 | O=C(O)CCCCc1nc2cc(C(=O)N3CCN(c4cccc(C(F)(F)F)c4)CC3)ccc2nc1-c1ccc(Cl)cc1 [compound 610, 5-(3-(4-chlorophenyl)-7-(4-(3-(trifluoromethyl)phenyl)piperazine-1-carbonyl)quinoxalin-2-yl)pentanoic acid] |
| 2.1 to 20 | CCCCN(CCC)C(=O)c1ccc2nc(-c3ccc(Cl)cc3)c(CCCCC(=O)O)nc2c1 [compound 611, 5-(7-(butyl(propyl)carbamoyl)-3-(4-chlorophenyl)quinoxalin-2-yl)pentanoic acid] |
| 0.1 to 2 | O=C(O)CCCCc1nc2cc(C(=O)N[C@H]3CCOc4cc(F)ccc43)ccc2nc1-c1ccc(Cl)cc1 [compound 612, (S)-5-(3-(4-chlorophenyl)-7-((7-fluorochroman-4-yl)carbamoyl)quinoxalin-2-yl)pentanoic acid] |
| 20.1 to 200 | O=C(O)CCCCc1nc2cc(C(=O)N3CCO[C@@H](c4ccc(F)cc4)C3)ccc2nc1-c1ccc(Cl)cc1 [compound 613, (S)-5-(3-(4-chlorophenyl)-7-(2-(4-fluorophenyl)morpholine-4-carbonyl)quinoxalin-2-yl)pentanoic acid] |
| 2.1 to 20 | O=C(O)CCCCc1nc2cc(C(=O)N3CCO[C@H](c4ccc(F)cc4)C3)ccc2nc1-c1ccc(Cl)cc1 [compound 614, (R)-5-(3-(4-chlorophenyl)-7-(2-(4-fluorophenyl)morpholine-4-carbonyl)quinoxalin-2-yl)pentanoic acid] |
| 2.1 to 20 | O=C(O)CCCCc1nc2cc(C(=O)N3CCO[C@@H](c4ccc(C(F)(F)F)cc4)C3)ccc2nc1-c1ccc(Cl)cc1 [compound 615, (S)-5-(3-(4-chlorophenyl)-7-(2-(4-(trifluoromethyl)phenyl)morpholine-4-carbonyl)quinoxalin-2-yl)pentanoic acid] |
| 20.1 to 200 | O=C(O)CCCCc1nc2cc(C(=O)N3CCO[C@H](c4ccc(C(F)(F)F)cc4)C3)ccc2nc1-c1ccc(Cl)cc1 [compound 616, (R)-5-(3-(4-chlorophenyl)-7-(2-(4-(trifluoromethyl)phenyl)morpholine-4-carbonyl)quinoxalin-2-yl)pentanoic acid] |
| 0.1 to 2 | O=C(O)CCCCc1nc2cc(C(=O)N[C@@H]3CCCc4ccncc43)ccc2nc1-c1ccc(Cl)cc1 [compound 617] |
| 0.1 to 2 | O=C(O)CCCCc1nc2cc(C(=O)N[C@H]3CCCc4ccncc43)ccc2nc1-c1ccc(Cl)cc1 [compound 618, (S)-5-(3-(4-chlorophenyl)-7-((5,6,7,8-tetrahydroisoquinolin-8-yl)carbamoyl)quinoxalin-2-yl)pentanoic acid] |
